Measured values: US20180022780A1, “STABILIZATION ADRENOMEDULLIN DERIVATIVES AND USE THEREOF” (priority 2014, published 2018)
Bridge positions count the residues as written; N and C are the ends. Square brackets hold non-standard residues; d marks the D form. Peptide text beside a SMILES is read from it. Orn = NCCC[C@H](N)C(=O)O; Dab = NCC[C@H](N)C(=O)O

target: T1, CLR fused to EYFP and RAMP2 fused to ECFP (Homo sapiens, UniProt O60895+Q16602); test: cAMP assay (CRE luciferase reporter, HEK-293 cells transiently co-transfected with CLR and RAMP2); format: cell-based; conditions: Table 2, cAMP assay; HEK-293, CLR/RAMP2, CRE luciferase, 3 h stimulation, normalized to [G^14]ADM(14-52)
T1 construct: EYFP; ECFP; expressed in transfected cells; host or cells: HEK-293 cells, transient co-transfection
T1 sequence (Q16602 23-461): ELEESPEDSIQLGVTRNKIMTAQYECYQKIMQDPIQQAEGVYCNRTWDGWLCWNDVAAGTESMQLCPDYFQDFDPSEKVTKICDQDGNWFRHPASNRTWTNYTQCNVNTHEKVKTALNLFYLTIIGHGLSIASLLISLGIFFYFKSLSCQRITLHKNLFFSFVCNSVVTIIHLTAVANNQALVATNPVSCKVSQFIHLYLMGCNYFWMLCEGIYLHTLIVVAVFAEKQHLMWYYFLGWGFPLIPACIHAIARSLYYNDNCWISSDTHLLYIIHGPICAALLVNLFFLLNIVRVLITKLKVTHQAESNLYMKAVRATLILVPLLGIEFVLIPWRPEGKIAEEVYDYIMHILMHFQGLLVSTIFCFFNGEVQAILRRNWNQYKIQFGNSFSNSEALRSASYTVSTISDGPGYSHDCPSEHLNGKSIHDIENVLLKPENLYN
T1 sequence (O60895 43-175): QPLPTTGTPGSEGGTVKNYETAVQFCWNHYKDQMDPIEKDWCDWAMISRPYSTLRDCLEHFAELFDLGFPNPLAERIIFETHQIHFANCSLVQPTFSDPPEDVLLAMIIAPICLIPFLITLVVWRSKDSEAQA
Procedure: HEK-293 cells (human embryonic kidney cells) were cultured in Ham's F-12/DMEM (1/1; v/v) containing 15% FCS under humidified atmosphere at 37° C. and 5% CO2 in 75 cm^2 cell culture flasks.
Cells were cultured in 75 cm^2 flasks to 70-80% confluency. 45 μl Metafectene® Pro was diluted in 900 μl Ham's F-12/DMEM (1/1; v/v) and incubated for 20 min at room temperature. 9000 ng plasmid containing DNA of CLR fused to EYFP and 3000 ng plasmid containing DNA of RAMP2 fused to ECFP were dissolved in 900 μl Ham's F-12/DMEM (1/1; v/v). The plasmid solution was mixed with the Metafectene® Pro solution and incubated for 25 min at room temperature. Medium was removed from the cells and replaced by 6 ml Ham's F-12/DMEM (1/1; v/v) containing 15% FCS. After addition of transfection solution the cells were incubated for 3 h under humidified atmosphere at 37° C. and 5% CO2.
For the second transfection 45 μl Metafectene® Pro was diluted in 900 μl Ham's F-12/DMEM (1/1; v/v) and incubated for 20 min at room temperature. 12000 ng of pGL4.29[luc2P/CRE/Hygro] plasmid containing DNA for the luciferase reporter gene luc2P (with CRE promotor region) were dissolved in 900 μl Ham's F-12/DMEM (1/1; v/v). The plasmid solution was mixed with the Metafectene® Pro solution and incubated for 25 min at room temperature. Medium was removed from the cells and replaced by 6 ml Ham's F-12/DMEM (1/1; v/v) containing 15% FCS. After addition of transfection solution the cells were incubated under humidified atmosphere at 37° C. and 5% CO2 over night.
For the coating of 96-well-plates 50 μl of a Poly-D-Lysine solution (1 ml stock solution of Poly-D-Lysin-hydrobromid/10 ml DPBS) were pipetted in each well and incubated for 40 min. After removal of the Poly-D-Lysine each well was washed with 50 μl DPBS. Transiently transfected cells were detached from the cell culture flask by removal of the medium, twofold washing with 5 m1 DPBS and resuspending in 13 ml Ham's F-12/DMEM (1/1; v/v) containing 15% FCS. 90000 to 120000 cells in 150 μl Ham's F-12/DMEM (1/1; v/v) containing 15% FCS were seeded per well and the plates were incubated under humidified atmosphere at 37° C. and 5% CO2 over night.
For each ligand a serial dilution giving eight different concentrations was prepared using Ham's F-12/DMEM (1/1; v/v). Before stimulation the medium on the cells was replaced by 100 μl Ham's F-12/DMEM (1/1; v/v) and the plates were incubated for 1 h under humidified atmosphere at 37° C. and 5% CO2. For stimulation the medium was removed again and the cells were incubated for 3 h in 80 μl of ligand-solution under humidified atmosphere at 37° C. and 5% CO2. In addition 80 μl of a 5 μM forskolin solution (in Ham's F-12/DMEM (1/1; v/v)) was used as a positive control and 80 μl of Ham's F-12/DMEM (1/1; v/v) as a negative control. Each concentration and the controls were tested as triplicates.
After 3 h of stimulation, the solutions were removed and the cells were washed with 50 μl of Ham's F-12/DMEM (1/1; v/v) per well. After 10 min incubation in 30 μl of Ham's F-12/DMEM (1/1; v/v) at room temperature, 30 μl of luciferase-solution (ONE-Glo™ Luciferase Assay System) was added and the luminescence was directly measured using an Infinite M200 (Tecan).
Data analysis of the luminescence measurement was carried out with GraphPad Prism 5. Therefore the measured luminescence values of each plate were first corrected on the base of the respective average of forskolin stimulation. Afterwards they were normalized to [G^14]ADM(14-52) which was used as standard peptide in every assay. After correction and normalization data was analysed using non-linear regression giving dose-response curves for each tested ligand.

SMILES	EC50 [µM]
CC[C@H](C)[C@H](NC(=O)[C@H](CCC(N)=O)NC(=O)[C@H](Cc1c[nH]cn1)NC(=O)[C@H](C)NC(=O)[C@H](CC(C)C)NC(=O)[C@H](CCCCN)NC(=O)[C@H](CCC(N)=O)NC(=O)[C@@H](NC(=O)[C@@H](NC(=O)[C@@H]1CCCNC(=O)C[C@H](NC(=O)CNC(=O)CN)C(=O)N[C@@H](CCCNC(=N)N)C(=O)N[C@@H](Cc2ccccc2)C(=O)NCC(=O)N[C@@H]([C@@H](C)O)C(=O)N1)[C@@H](C)O)C(C)C)C(=O)N[C@@H](Cc1ccc(O)cc1)C(=O)N[C@@H](CCC(N)=O)C(=O)N[C@@H](Cc1ccccc1)C(=O)N[C@H](C(=O)N[C@@H](CC(=O)O)C(=O)N[C@@H](CCCCN)C(=O)N[C@@H](CC(=O)O)C(=O)N[C@@H](CCCCN)C(=O)N[C@@H](CC(=O)O)C(=O)N[C@@H](CC(N)=O)C(=O)N[C@H](C(=O)N[C@@H](C)C(=O)N1CCC[C@H]1C(=O)N[C@@H](CCCNC(=N)N)C(=O)N[C@@H](CO)C(=O)N[C@@H](CCCCN)C(=O)N[C@H](C(=O)N[C@@H](CO)C(=O)N1CCC[C@H]1C(=O)N[C@@H](CCC(N)=O)C(=O)NCC(=O)N[C@@H](Cc1ccc(O)cc1)C(N)=O)[C@@H](C)CC)C(C)C)[C@@H](C)O [Example 8, ((2S,5S,11S,14S,21S)-21-(2-(2-aminoacetamido)acetamido)-5-benzyl-2-(3-guanidinopropyl)-11-((R)-1-hydroxyethyl)-3,6,9,12,19,22-hexaoxo-1,4,7,10,13,18-hexaazacyclodocosane-14-carbonyl)-L-threonyl-ADM(22-52)] (H-GGDRFGT[Orn]TVQKLAHQIYQFTDKDKDNVAPRSKISPQGY-NH2; lactam 3-8)	0.02
CC[C@H](C)[C@H](NC(=O)[C@H](CCC(N)=O)NC(=O)[C@H](Cc1c[nH]cn1)NC(=O)[C@H](C)NC(=O)[C@H](CC(C)C)NC(=O)[C@H](CCCCN)NC(=O)[C@H](CCC(N)=O)NC(=O)[C@@H](NC(=O)[C@@H](NC(=O)[C@@H]1CCC(=O)NCCC[C@H](NC(=O)CNC(=O)CN)C(=O)N[C@@H](CCCNC(=N)N)C(=O)N[C@@H](Cc2ccccc2)C(=O)NCC(=O)N[C@@H]([C@@H](C)O)C(=O)N1)[C@@H](C)O)C(C)C)C(=O)N[C@@H](Cc1ccc(O)cc1)C(=O)N[C@@H](CCC(N)=O)C(=O)N[C@@H](Cc1ccccc1)C(=O)N[C@H](C(=O)N[C@@H](CC(=O)O)C(=O)N[C@@H](CCCCN)C(=O)N[C@@H](CC(=O)O)C(=O)N[C@@H](CCCCN)C(=O)N[C@@H](CC(=O)O)C(=O)N[C@@H](CC(N)=O)C(=O)N[C@H](C(=O)N[C@@H](C)C(=O)N1CCC[C@H]1C(=O)N[C@@H](CCCNC(=N)N)C(=O)N[C@@H](CO)C(=O)N[C@@H](CCCCN)C(=O)N[C@H](C(=O)N[C@@H](CO)C(=O)N1CCC[C@H]1C(=O)N[C@@H](CCC(N)=O)C(=O)NCC(=O)N[C@@H](Cc1ccc(O)cc1)C(N)=O)[C@@H](C)CC)C(C)C)[C@@H](C)O [Example 20, ((2S,5S,11S,14S,22S)-22-(2-(2-aminoacetamido)acetamido)-5-benzyl-2-(3-guanidinopropyl)-11-((R)-1-hydroxyethyl)-3,6,9,12,17,23-hexaoxo-1,4,7,10,13,18-hexaazacyclotricosane-14-carbonyl)-L-threonyl-ADM(22-52)] (H-GG[Orn]RFGTETVQKLAHQIYQFTDKDKDNVAPRSKISPQGY-NH2; lactam 3-8)	0.0091
CC[C@H](C)[C@H](NC(=O)[C@H](CCC(N)=O)NC(=O)[C@H](Cc1c[nH]cn1)NC(=O)[C@H](C)NC(=O)[C@H](CC(C)C)NC(=O)[C@H](CCCCN)NC(=O)[C@H](CCC(N)=O)NC(=O)[C@@H](NC(=O)[C@@H](NC(=O)[C@@H]1CCNC(=O)CC[C@H](NC(=O)CNC(=O)CN)C(=O)N[C@@H](CCCNC(=N)N)C(=O)N[C@@H](Cc2ccccc2)C(=O)NCC(=O)N[C@@H]([C@@H](C)O)C(=O)N1)[C@@H](C)O)C(C)C)C(=O)N[C@@H](Cc1ccc(O)cc1)C(=O)N[C@@H](CCC(N)=O)C(=O)N[C@@H](Cc1ccccc1)C(=O)N[C@H](C(=O)N[C@@H](CC(=O)O)C(=O)N[C@@H](CCCCN)C(=O)N[C@@H](CC(=O)O)C(=O)N[C@@H](CCCCN)C(=O)N[C@@H](CC(=O)O)C(=O)N[C@@H](CC(N)=O)C(=O)N[C@H](C(=O)N[C@@H](C)C(=O)N1CCC[C@H]1C(=O)N[C@@H](CCCNC(=N)N)C(=O)N[C@@H](CO)C(=O)N[C@@H](CCCCN)C(=O)N[C@H](C(=O)N[C@@H](CO)C(=O)N1CCC[C@H]1C(=O)N[C@@H](CCC(N)=O)C(=O)NCC(=O)N[C@@H](Cc1ccc(O)cc1)C(N)=O)[C@@H](C)CC)C(C)C)[C@@H](C)O [Example 10, ((2S,5S,11S,14S,21S)-21-(2-(2-aminoacetamido)acetamido)-5-benzyl-2-(3-guanidinopropyl)-11-((R)-1-hydroxyethyl)-3,6,9,12,18,22-hexaoxo-1,4,7,10,13,17-hexaazacyclodocosane-14-carbonyl)-L-threonyl-ADM(22-52)] (H-GGERFGT[Dab]TVQKLAHQIYQFTDKDKDNVAPRSKISPQGY-NH2; lactam 3-8)	0.041
CC[C@H](C)[C@H](NC(=O)[C@H](CCC(N)=O)NC(=O)[C@H](Cc1c[nH]cn1)NC(=O)[C@H](C)NC(=O)[C@H](CC(C)C)NC(=O)[C@H](CCCCN)NC(=O)[C@H](CCC(N)=O)NC(=O)[C@@H](NC(=O)[C@@H](NC(=O)[C@@H]1CCCCNC(=O)CC[C@H](NC(=O)CNC(=O)CN)C(=O)N[C@@H](CCCNC(=N)N)C(=O)N[C@@H](Cc2ccccc2)C(=O)NCC(=O)N[C@@H]([C@@H](C)O)C(=O)N1)[C@@H](C)O)C(C)C)C(=O)N[C@@H](Cc1ccc(O)cc1)C(=O)N[C@@H](CCC(N)=O)C(=O)N[C@@H](Cc1ccccc1)C(=O)N[C@H](C(=O)N[C@@H](CC(=O)O)C(=O)N[C@@H](CCCCN)C(=O)N[C@@H](CC(=O)O)C(=O)N[C@@H](CCCCN)C(=O)N[C@@H](CC(=O)O)C(=O)N[C@@H](CC(N)=O)C(=O)N[C@H](C(=O)N[C@@H](C)C(=O)N1CCC[C@H]1C(=O)N[C@@H](CCCNC(=N)N)C(=O)N[C@@H](CO)C(=O)N[C@@H](CCCCN)C(=O)N[C@H](C(=O)N[C@@H](CO)C(=O)N1CCC[C@H]1C(=O)N[C@@H](CCC(N)=O)C(=O)NCC(=O)N[C@@H](Cc1ccc(O)cc1)C(N)=O)[C@@H](C)CC)C(C)C)[C@@H](C)O [Example 1, ((2S,5S,11S,14S,23S)-23-(2-(2-aminoacetamido)acetamido)-5-benzyl-2-(3-guanidinopropyl)-11-((R)-1-hydroxyethyl)-3,6,9,12,20,24-hexaoxo-1,4,7,10,13,19-hexaazacyclotetracosane-14-carbonyl)-L-threonyl-ADM(22-52)] (H-GGERFGTKTVQKLAHQIYQFTDKDKDNVAPRSKISPQGY-NH2; lactam 3-8)	0.031
